Measured values from US6063803A, “Octahydropyrrolo-[3,4-c]carbazoles useful as analgesic agents” (Ortho-McNeil Pharmaceutical, Inc., priority 1999, dated 2000).

Columns and labels:
[1] = mouse hot plate assay (48° C.); type: in vivo, mice; conditions: mouse hot plate 48° C.
Procedure: The test was essentially described by N. Eddy and D. Leimbach, Synthetic Analgesics II Dithienylbutenyl- and Dithienylbutylamines, J. Pharmacol. Exp. Ther., 107, 385-93 (1953) and J. O'Callaghan and S. Holtzman, Qualification of the Analgesic Activity of Narcotic Antagonists by a Modified Hot-Plate Procedure, J. Pharmacol. Exp. Ther, 192, 497-505 (1975), with minor modifications. Mice were placed on a heated surface (48° C.) and the time interval (seconds) between placement and a shaking, licking, or tucking of the hind paw was recorded as the predrug latency response. This procedure was repeated 30 minutes after the administration of a test compound (p.o., 10 mL/kg). The percent maximum possible antinociceptive effect (% MPE) was determined using the following formula: % MPE=100×(Test latency-Predrug latency)/(Cutoff time-Predrug Latency), using the predrug latency of each animal and cutoff time established to prevent injury to the animal. The cutoff time was 90s.
The ED50 value and 95% confidence intervals were determined using a computer-assisted linear regression analysis of the dose-response curve, including an analysis of variance test for linearity. Oral dosing of Compound 58 produced an analgesic effect after 15 min. This effect lasted for one hour.

[2] = mouse acetylcholine bromide-induced abdominal constriction assay; type: in vivo, mice (Male, Cr1:CD-1)
Procedure: The analgesic activity of compounds of Formula I were determined in the following in vivo assay. The procedure was run essentially as described by H. Collier et al. in B. J. Pharmacol. Chemother., 32: 295-310, 1968, with minor modifications. Mice (Male, Cr1:CD-1, Charles River Laboratories) were used in the following example. The test drugs or appropriate vehicle were administered orally (10 mL/kg, p.o.) or subcutaneously (10 mL/kg, s.c.) and 30 minutes later the animal received an intraperitoneal (i.p.) injection of 5.5 mg/kg acetylcholine bromide. The mice were then placed in glass bell jars and observed for a ten minute observation period for the occurrence of an abdominal constriction response (defined as a wave of constriction and elongation passing caudally along the abdominal wall, accompanied by a twisting of the trunk and followed by extension of the hind limbs). The percent inhibition of this response to antinociceptive stimulus (equated to % analgesia) was calculated as follows: The % inhibition of response, i.e., % analgesia is equal to the number of non-responding drug-treated animals×100 divided by the number of animals in the group.
The ED50 values and their 95% fiducial limits were determined by a computer assisted probit analysis. […] This effect lasted for 4-5 hours.
Table A lists the % inhibition for some compounds of the invention. Unless otherwise indicated the compounds were administered s.c. at 30 mg/kg. [drawing 63]

[3] = rat air-induced writhing (abdominal constriction) assay; type: in vivo, rats; conditions: rat air-induced writhing
Procedure: The analgesic activity was determined in another model using rats as the test animal. The procedure was essentially described by P. VonVoightlander et al. in Air-induced Writhing, a Rapid Broad Spectrum Assay for Analgesics, Drug Dev. Res., 2, 577-81, (1982). The test compound or vehicle was administered p.o. (2 mL/kg) and after 30 min, the animals received an i.p. injection of air (10 mL). The animals were placed into individual observation chambers and observed for 30 min for the occurrence of abdominal constriction as defined above. The percent inhibition of this response was calculated as follows. The % inhibition of response, i.e., % analgesia is equal to the number nonresponding drug-treated animals×100 divided by the number of animals in the group. […] This effect lasted for 2-3 hours.

α2-adrenergic receptor = target: T1, α2-adrenergic receptor (Rattus norvegicus, UniProt P22909); test: α2-adrenergic receptor binding (3H-para-aminoclonidine, rat cortex synaptic membranes); design: species or system rat (Wistar); conditions: 25° C., 20 min
T1 construct: aliquots of the synaptic membrane fraction, the ligand; from tissue; host or cells: cerebral cortex synaptic membranes of male Wistar rats
T1 sequence (P22909 1-465): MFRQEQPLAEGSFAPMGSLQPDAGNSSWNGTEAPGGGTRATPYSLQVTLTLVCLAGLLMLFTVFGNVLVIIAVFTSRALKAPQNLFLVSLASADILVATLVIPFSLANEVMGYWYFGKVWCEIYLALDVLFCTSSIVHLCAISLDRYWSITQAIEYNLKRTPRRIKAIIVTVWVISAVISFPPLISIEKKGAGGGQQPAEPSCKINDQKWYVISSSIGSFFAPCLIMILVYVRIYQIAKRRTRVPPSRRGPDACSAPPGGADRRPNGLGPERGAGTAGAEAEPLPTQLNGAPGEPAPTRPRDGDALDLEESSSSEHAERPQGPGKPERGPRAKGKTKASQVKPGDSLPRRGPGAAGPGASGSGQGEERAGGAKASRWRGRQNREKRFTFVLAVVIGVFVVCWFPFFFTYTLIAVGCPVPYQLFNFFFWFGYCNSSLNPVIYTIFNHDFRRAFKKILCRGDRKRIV
Procedure: The α2 -adrenergic activity of the compounds was determined by the following in vitro assay. Male, Wistar rats (150-250 g, VAF, Charles River, Kingston, N.Y.) were sacrificed by cervical dislocation and their brains removed and immediately placed in ice cold HEPES buffered sucrose. The cortex was dissected out and homogenized in 20 volumes of HEPES sucrose in a Teflon®-glass homogenizer. The homogenate was centrifuged at 1000×g for 10 min, and the resulting supernatant centrifuged at 42,000×g for 10 min. The resulting pellet was resuspended in 30 volumes of 3 mM potassium phosphate buffer, pH 7.5, preincubated at 25° C. for 30 min and recentrifuged. The resulting pellet was resuspended as described above and used for the receptor binding assay. Incubation was performed in test tubes containing phosphate buffer, 2.5 mM MgCl2, aliquots of the synaptic membrane fraction, the ligand ^3 H-para-aminoclonidine and test drug at 25° C. for 20 min. The incubation was terminated by filtration of the tube contents through glass fiber filter sheets. The sheets were washed with 10 mM HEPES buffer and the adhering radioactivity was quantified by liquid scintillation spectrometry.
Dose-response data are analyzed with LIGAND, a nonlinear curve fitting program designed specifically for the analysis of ligand binding data. […]

[4] = mouse abdominal constriction, oral dosing

Q: What does the source list for `CN1CC2CCc3[nH]c4ccccc4c3C2C1` (single isomer, unassigned) [Compound 58]?
A: analgesic effect, time after oral dosing ([1]; oral dosing): 15 min; ED50 ([1]; po, 0.5 h, p.o., cutoff 90s, read-out: ED50): 14.2 mg/kg; responders at 30 mg/kg ([2]; Mus musculus, 0.5 h, 30 mg/kg po, acetylcholine bromide 5.5 mg/kg i.p. 30 min later, read-out: % inhibition @ 30 mg/kg (po)): 100%; analgesic effect observed, time after oral dosing [2, 4]: 15 min; duration of analgesic effect [2, 4]: 4 to 5 h; ED50 ([2]; mouse acetylcholine abdominal constriction, probit analysis, read-out: ED50): 5.8 mg/kg; ED50 ([3]; po, p.o., read-out: ED50): 23.1 mg/kg; analgesic effect observed, time after oral dosing ([3]; oral dosing): 30 min; duration of analgesic effect ([3]; oral dosing): 2 to 3 h; Ki (α2-adrenergic receptor): 9.4 nM
